In patent US5726188A, “Optically active imidazolidinone derivatives and processes for preparing them” (Kyorin Pharmaceutical Co., Ltd., priority 1993, dated 1998):
pIC50: −log10 of the molar value.

Columns and labels:
[1] = target: T1, M1 type muscarinic cholinergic receptor (Rattus norvegicus, UniProt P08482); experiment: Radioligand binding to M1 type muscarinic cholinergic receptor ([^3 H]-pirenzepine); details: for pIC50: rat brain (except cerebellum and brain stem) crude synaptic membrane, [^3 H]-PZ 1 nM, 60 minutes, 25 °C
T1 construct: crude synaptic membrane specimen prepared from all brains (except cerebellum and brain stem) of rat; from tissue; host or cells: rat brain without cerebellum and brain stem, crude synaptic membranes
T1 sequence (P08482 1-460): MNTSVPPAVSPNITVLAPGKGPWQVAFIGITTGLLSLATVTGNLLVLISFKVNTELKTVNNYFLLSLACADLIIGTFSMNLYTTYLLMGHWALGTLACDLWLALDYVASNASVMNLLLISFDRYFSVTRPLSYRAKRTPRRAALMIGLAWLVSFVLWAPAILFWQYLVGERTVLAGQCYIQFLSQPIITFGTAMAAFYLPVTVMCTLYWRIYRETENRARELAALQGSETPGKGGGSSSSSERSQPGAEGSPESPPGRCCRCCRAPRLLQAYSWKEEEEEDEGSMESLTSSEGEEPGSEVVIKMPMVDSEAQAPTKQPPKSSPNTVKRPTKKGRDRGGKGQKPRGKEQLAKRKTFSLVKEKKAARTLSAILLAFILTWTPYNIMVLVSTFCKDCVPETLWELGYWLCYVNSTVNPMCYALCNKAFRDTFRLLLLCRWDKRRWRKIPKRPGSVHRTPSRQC
Method: 1) Radioligand binding experiment to M1 type muscarinic cholinergic receptor
Method: To a crude synaptic membrane specimen prepared from all brains (except cerebellum and brain stem) of rat, [^3 H]-pirenzepine ([^3 H]-PZ, final oncentration: 1 nM) and testing compound were added and the mixture was incubated for 60 minutes at 25 ° C. After stopped the reaction by high-speed suction filtration, the radioactivity on filter was measured with liquid scintillation counter. The specific binding level of [^3 H]-pirenzepine was determined by subtracting the nonspecific binding level in the presence of atropine (1 μM) from total binding level. Putting the [^3 H]-pirenzepine binding in the absence of testing compound on 100, the concentration of compound to decrease by 50 % (IC50 value) was made an index of the binding activity of compound to M1 muscarinic receptor (refer to: J. A. D. M. Toner et al, Life Science, 1987, 40, 1981-1987).

[2] = system: pirenzepine-induced amnesia; experiment: Pirenzepine-induced amnesia, step-through type passive avoidance; type: in vivo, Std:ddY strain male mice; details: oral; for Reaction latency Mean ± S.E.: 30 or 60 minutes before acquisition trial, pirenzepine-treated mice; for Improvement rate: pirenzepine-induced amnesia
Description: Testing on the pirenzepine-induced amnesia
For the experiment animals, Std:ddY strain male mice with body weight of 24 to 34 g (age in week: 5-6) (Nippon SLC) were used. For the device, a step-through type passive avoidance apparatus (made by Ohara Medical Co., Ltd.) consisting of two […] and dark rooms was used. In the acquisition trial, mouse was placed in the light room and, 10 seconds later, the partitive guillotine door was opened. As soon as the mouse moved into the dark room, the guillotine door was closed and electric shock of 41 to 45 V was given for 1 second through the metal grid bars of the floor. The retention trial was conducted 24 hours later since then. […] The induction of amnesia was performed by fixing a mouse at prone position without anesthetization at 20 minutes before learning acquisition trial and injecting pirenzepine (10 μg/2 μl/mouse bilaterally into cerebral ventricles using a microsyringe. Moreover, a group not to administered with pirenzepine before acquisition trial (non-amnesia comparison group) was also provided. The mice were made to be 12 to 21 animals per group and the testing compound was administered orally at 30 or 60 minutes before acquisition trial. The improvement rate was calculate according to following equation and the results are shown in Table 5 (refer to: M. P. Callfield et at, J. Pharm. Pharmacol. 1983, 35, 131-132). [formula]
The extension of the reaction latency with compound therefore means the improved amnesia.

[3] = target: T2, M2 type muscarinic cholinergic receptor (Rattus norvegicus, UniProt P10980); experiment: Radioligand binding to M2 type muscarinic cholinergic receptor ([^3 H]-quinuclidyl benzoate); details: rat brain stem crude synaptic membrane, [^3 H]-QNB 0.1 nM
T2 construct: crude synaptic membrane specimen was prepared from the brain stem (medulla oblongata-pons) of rat; from tissue; host or cells: rat brain stem (medulla oblongata-pons), crude synaptic membranes
T2 sequence (P10980 1-466): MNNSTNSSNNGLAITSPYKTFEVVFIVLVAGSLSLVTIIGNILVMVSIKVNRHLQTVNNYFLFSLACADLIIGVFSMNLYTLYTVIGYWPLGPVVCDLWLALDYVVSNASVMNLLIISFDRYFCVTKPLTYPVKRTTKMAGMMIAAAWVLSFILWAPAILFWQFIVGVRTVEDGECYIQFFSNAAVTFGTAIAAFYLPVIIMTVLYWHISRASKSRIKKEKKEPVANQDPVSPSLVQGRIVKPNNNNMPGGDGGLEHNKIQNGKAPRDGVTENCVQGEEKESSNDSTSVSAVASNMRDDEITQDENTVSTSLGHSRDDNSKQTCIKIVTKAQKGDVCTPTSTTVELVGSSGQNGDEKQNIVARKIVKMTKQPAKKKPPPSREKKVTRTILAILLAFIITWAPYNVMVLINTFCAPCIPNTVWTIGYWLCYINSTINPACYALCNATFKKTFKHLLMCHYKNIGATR

Std:ddY strain male mice = experiment: In vivo toxicity test, oral administration; details: for common symptoms and death / Convulsion (animals affected) / Death (animals) / dose at which convulsion was observed / dose at which death was observed: 3 days
Method: For the experiment animals, 4 animals per group of Std:ddY strain male mice with body weightOf 26 to 30 g (age in week: 5) (Nippon SLC) were used. The testing compound was suspended into 5 % solution of arabic gum and administered orally. The common symptoms and death caused with compound were recorded for 3 days after administration.

[4] = system: M1 and M2 muscarinic receptors; experiment: Selectivity to M1 receptor (ratio of IC50 values from the M1 and M2 binding experiments); set-up: species or system rat
Method: 3) Selectivity to M1 receptor
This was determined from the ratio of IC50 values of compound obtained from the binding experiments of M1 and M2 muscarinic receptors. [formula]

Row | Structure (SMILES) | pIC50 [1] | Reaction latency Mean ± S.E. ([2]; 3 mg/kg) [s] | Improvement rate ([2]; 3 mg/kg) [%] | Reaction latency Mean ± S.E. ([2]; 10 mg/kg) [s] | Improvement rate ([2]; 10 mg/kg) [%] | pIC50 [3] | common symptoms (in words) (Std:ddY strain male mice) | common symptoms and death (Std:ddY strain male mice; 300 mg/kg) | dose at which convulsion was observed (Std:ddY strain male mice) [mg/kg] | dose at which death was observed (Std:ddY strain male mice) [mg/kg] | Reaction latency Mean ± S.E. ([2]; 30 mg/kg) [s] | Improvement rate ([2]; 30 mg/kg) [%] | also measured
1 | O=C1N(c2ccc(F)cc2)CCN1C1CCCN(Cc2ccccc2)C1 (racemic) [Referential example 8, (±)-1-(4-fluorophenyl)-3-[3-(1-phenylmethyl)piperidyl]-2-imidazolidinone] | 7.10 | 55.1 ± 20.0 | -20.7 | 153.7 ± 27.6 | 33.2 | 5.96 | convulsive actions were seen | None | 600 | 1200 | – | – | Convulsion (animals affected) (Std:ddY strain male mice; 600 mg/kg): 3/4; Death (animals) (Std:ddY strain male mice; 1200 mg/kg): 4/4
2 | O=C1N(c2ccc(F)cc2)CCN1[C@@H]1CCCN(Cc2ccccc2)C1 [Example 1, (R)-1-(4-florophenyl)-3-[3-(1-phenylmethyl)piperidyl]-2-imidazolidinone] | 7.52 | 91.5 ± 21.4 | 34.3 | 133.0 ± 29.3 | 77.9 | 6.30 | – | None | – | – | 166.9 ± 40.2 | 113.6 | affinity to the central M1 muscarinic receptor (in words) [1]: patent affinity to the central M1 muscarinic receptor; in vitro muscarine (M1) activity / affinity relative to S form (Referential example 9) ([1]; compared with S isomer): about 120 times; in vitro muscarine (M1) activity / affinity relative to racemic form (Referential example 8) ([1]; compared with racemic form): about 3 times; improvement effect on the amnesia / disturbance of learning (in words) ([2]; listed as R form): could be recognized only for R form with significant difference; improvement effect on the amnesia / disturbance of learning (in words) ([2]; listed as R isomer): very excellent improvement effect on the amnesia; selectivity to M1 receptor (in words) ([4]; M1 versus M2 receptor): far higher selectivity to M1 receptor than to M2 receptor; IC50 (M2)/IC50 (M1) ([4]; ratio of IC50 values, selectivity to M1 receptor): 16.7; common symptoms and death (Std:ddY strain male mice; 600 mg/kg): None; common symptoms and death (Std:ddY strain male mice; 1200 mg/kg): None; common symptoms and death (Std:ddY strain male mice; 1200 mg/kg, listed as R form): problems did not arise at any rate; common symptoms and death (Std:ddY strain male mice; 1200 mg/kg, listed as compound of the invention): such symptom was not caused even at 1200 mg/kg
3 | O=C1N(c2ccc(F)cc2)CCN1[C@H]1CCCN(Cc2ccccc2)C1 [Referential example 9, (S)-1-(4-fluorophenyl)-3-[3-(1-phenylmethyl)piperidyl]-2-imidazolidinone] | 5.43 | 63.3 ± 32.1 | -23.5 | 61.5 ± 26.5 | -25.0 | < 5.00 | convulsive actions were seen | – | ≥ 300 | ≥ 300 | 113.2 ± 36.2 | 18.1 | Convulsion (animals affected) (Std:ddY strain male mice; 300 mg/kg): 2/4; Death (animals) (Std:ddY strain male mice; 300 mg/kg): 1/4; Death (animals) (Std:ddY strain male mice; 600 mg/kg): 4/4
